Source: patent publication US20050037939A1, “Bottlewash additive” (Scimed Life Systems, Inc., priority 2002, published 2005)

System: mold on REF-PET bottles
Test: Mold Remove Ability Test
Details: alkaline bottlewashing environment; conditions not given
Procedure: 1. Mold Remove Ability Test A) Compositions are prepared according to the following general formula: [table] B) Select field returned bottles with heavy mold (black). Select 4 bottles per testing sequence. C) Cut the mold samples from REF-PET bottles using a utility knife. D) Label PET/mold pieces to keep track of the source bottle and the solution in which they are tested. E) Prepare solutions using 2.8% NaOH and 1% of the bottlewashing additive unless otherwise specified. F) Preheat the solutions to 55° C. G) Immerse PET/mold samples in respective bottlewashing compositions and soaked for 15 minutes with stirring at 400 rpm. H) If the mold is removed during testing note the time of removal. I) Remove the samples from solution. If the mold was not removed, rinse the sample in tap water for 10 seconds to see if mold can be removed at this point. J) Grade the samples by a % of mold removed and average the 4 tests as well as the time required for removal (Time Removal Grade). Time Grade is defined as follows: [table] Other Grades may be in between or lower depending on total mold removal

C6 alkyl diphenylene oxide disulfonate
cleaning / mold removal by the surfactant (general statement): superior cleaning/mold removal characteristics
